{
  "source": "patent US20150045610A1",
  "about": "“METHOD OF MODIFYING SPERMATOGENESIS, SPERMIOGENESIS AND/OR FERTILITY IN MAMMALS” (Monell Chemical Senses Center, priority 2012, published 2015)",
  "molecular_target": "T1, humanized mhT1R3 (Homo sapiens, UniProt Q7RTX0, A109T/A120V/A176D/A197V/A198V/A228S/A231N/A248T/A280V/A282S/A302S/A412V/A417V/A46T/A537T/C375D/D124S/D249S/D250G/D364H/D419E/D470T/D491G/D88A/DEL352-352/DEL488-489/E172D/E199T/E203N/E217D/E356N/E45S/E481Q/E505D/E525K/E545Q/F540P/F555L/G168S/G205S/G311T/G314N/G355L/G360D/G414H/G438R/G439D/G463S/G50T/G542N/H261R/H278R/H281Y/H332P/I485M/I536F/INS376MLQNLSSG/K32Q/K339E/K422L/K494V/K86G/L173R/L245Q/L272V/L29F/L354S/L385Q/L433M/L458M/L483S/L71F/L74M/M151L/M315I/M318V/M31A/N285S/N386L/N532H/N68L/P112S/P246H/P335S/P416H/P420H/P441T/P60I/Q221E/Q257L/Q317R/Q330L/Q336H/Q359L/Q372R/Q418S/Q504K/Q531K/R123Q/R247D/R252Q/R291G/R30K/R357A/R443Q/R467V/R473T/R479Q/R482Q/R486Y/R498Q/R52N/R550K/R553A/R556P/R560K/R56Q/S251Q/S267K/S289H/S290H/S392A/S446A/S447E/S464P/S477T/S490P/S53Q/S559P/S58N/S67P/T195Q/T346A/T377L/T390I/T434S/T480L/T63N/V152I/V277A/V366M/V36I/V381L/V393T/V437A/V465T/V61P/W72L)",
  "T1 construct": "the extracellular domain is of mouse origin and the transmembrane and intracellular domains of human origin; mouse T1R3 extracellular domain (fusion partner replacing the human extracellular domain); expressed in transfected cells; host or cells: transgenic Line 7c mice (T1R3-/-, Gus-/-, mhT1R3+/-)",
  "T1 sequence (Q7RTX0 with tags, fused parts or gaps L29F/R30K/M31A/K32Q/V36I/E45S/A46T/G50T/R52N/S53Q/R56Q/S58N/P60I/V61P/T63N/S67P/N68L/L71F/W72L/L74M/K86G/D88A/A109T/P112S/A120V/R123Q/D124S/M151L/V152I/G168S/E172D/L173R/A176D/T195Q/A197V/A198V/E199T/E203N/G205S/E217D/Q221E/A228S/A231N/L245Q/P246H/R247D/A248T/D249S/D250G/S251Q/R252Q/Q257L/H261R/S267K/L272V/V277A/H278R/A280V/H281Y/A282S/N285S/S289H/S290H/R291G/A302S/G311T/G314N/M315I/Q317R/M318V/Q330L/H332P/P335S/Q336H/K339E/T346A/DEL352-352/L354S/G355L/E356N/R357A/Q359L/G360D/D364H/V366M/Q372R/C375D/INS376MLQNLSSG/T377L/V381L/L385Q/N386L/T390I/S392A/V393T/A412V/G414H/P416H/A417V/Q418S/D419E/P420H/K422L/L433M/T434S/V437A/G438R/G439D/P441T/R443Q/S446A/S447E/L458M/G463S/S464P/V465T/R467V/D470T/R473T/S477T/R479Q/T480L/E481Q/R482Q/L483S/I485M/R486Y/DEL488-489/S490P/D491G/K494V/R498Q/Q504K/E505D/E525K/Q531K/N532H/I536F/A537T/F540P/G542N/E545Q/R550K/R553A/F555L/R556P/S559P/R560K limits assumed)": "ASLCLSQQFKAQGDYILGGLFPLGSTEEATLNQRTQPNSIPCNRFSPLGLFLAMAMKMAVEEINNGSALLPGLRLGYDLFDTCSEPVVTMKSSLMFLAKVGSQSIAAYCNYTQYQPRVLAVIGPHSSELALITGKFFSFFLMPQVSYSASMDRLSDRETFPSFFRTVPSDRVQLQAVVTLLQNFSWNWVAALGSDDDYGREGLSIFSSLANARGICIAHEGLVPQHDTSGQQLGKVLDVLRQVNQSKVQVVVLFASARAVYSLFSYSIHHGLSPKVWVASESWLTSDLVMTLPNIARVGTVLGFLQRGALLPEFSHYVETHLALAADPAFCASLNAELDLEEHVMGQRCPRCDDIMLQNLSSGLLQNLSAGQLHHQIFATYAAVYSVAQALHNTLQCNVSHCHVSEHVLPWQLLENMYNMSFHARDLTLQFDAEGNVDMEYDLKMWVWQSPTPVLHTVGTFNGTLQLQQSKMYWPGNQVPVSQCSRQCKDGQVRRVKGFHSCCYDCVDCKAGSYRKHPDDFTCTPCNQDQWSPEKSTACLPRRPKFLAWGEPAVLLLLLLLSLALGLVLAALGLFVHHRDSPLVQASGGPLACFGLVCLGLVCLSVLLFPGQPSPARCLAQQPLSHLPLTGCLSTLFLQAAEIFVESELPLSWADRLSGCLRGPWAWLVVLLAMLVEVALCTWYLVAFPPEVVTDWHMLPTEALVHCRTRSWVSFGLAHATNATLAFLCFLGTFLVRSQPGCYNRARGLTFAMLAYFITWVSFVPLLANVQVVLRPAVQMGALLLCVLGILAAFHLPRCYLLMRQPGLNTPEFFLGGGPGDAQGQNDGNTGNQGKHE",
  "assay": "T1R3 pharmacological block with clofibrate diet (male reproduction)",
  "type": "in vivo, mouse",
  "conditions": "line 7c males on clofibrate diet, mated with WT females",
  "description": "Matched groups (six males each) of WT and line 7c mice (expressing the chimerical mhT1R3 transgene on a T1R3/α-gustducin double-null background), 3-6 months old, were fed the indicated diets for 4-6 weeks. Each genotype was tested in two groups, one on the regular diet and one on a test diet with clofibrate. An additional group of males stayed on the test diet for another 4-6 weeks, during which time they were mated with WT females to determine whether the pharmacological intervention was effective. Then the animals were allowed to recover on the regular diet for an additional 4 weeks after the end of the treatment (half-time for total sperm turnover in mice), and again were tested for their reproductive capacity, and then their tissues were analyzed. […]\nWe observed spermatozoa after clofibrate treatment represent cells that were able to escape the inhibition of clofibric acid, most likely due to very fast clearance and fluctuating levels in rodents. […] Therefore, we measured sperm concentration as an indicator of efficiency of the pharmacological block and to be able to determine the concentration that results in effective sterility. We analyzed testicular morphology, sperm production, sperm motility and sperm function in in vitro fertilization after feeding these animals with the lipid lowering drug clofibrate. […]",
  "data": [
    {"smiles": "CC(C)(Oc1ccc(Cl)cc1)C(=O)O", "note": "[clofibric acid]", "values": [
      {"measurement": "male fertility", "result": "significantly affected male fertility"}
    ]}
  ]
}
